# In US20240189279A1, “IMMUNOMODULATORY COMPOSITIONS AND METHODS OF USE THEREOF” (THE TEXAS A&M UNIVERSITY SYSTEM, priority 2022, published 2024):
# Assay: I3A levels in fecal material, liver and serum after I3A in drinking water
# Assay type: in vivo, mice (male B6 129SF1/J)
# Conditions: WD and sugar water containing I3A vs same WD and SW without I3A
# From the text: Animal experiments. Male B6 129SF1/J mice at 6 weeks of age were obtained from Jackson Laboratories (Bar Harbor, ME). Mice were acclimatized to the animal facility for one week. At the start of the experiment, mice were randomly divided into four groups (n=10 for each group). Three of the four groups were fed ad libitum a Western diet (WD) with 40% Kcal from fat and containing 0.15% cholesterol (D12079B, Research Diets) and a sugar water (SW) solution (23.1 g/L d-fructose+18.9 g/L d-glucose) as previously described (DIAMOND model (15)). […] The WD group was fed WD and drank sugar water. […] The treatments were continued for another 8 weeks. Water bottles containing SW and I3A or only SW were changed every other day. A fourth group of mice was fed a low-fat control diet (D12450B, Research Diets) and normal water for 16 weeks (CN group) (FIG. 9A). FIG. 9A presents the study design. Mice belonging to the same treatment group were housed together (5 mice/cage). Mice were maintained on 12:12-h light-dark cycles. All procedures were performed in accordance with Texas A&M University Health Sciences Center Institutional Animal Care and Use Committee guidelines under an approved animal use protocol (AUP #2017-0145).
# Sample collection. […] FIG. 9B presents the sampling scheme. All fecal pellets were flash frozen in liquid nitrogen after collection. […]
structure (smiles),measurement,value
"O=C([O-])Cc1c[nH]c2ccccc12.[Na+] [I3A, Indole-3-acetate sodium salt]","I3A levels in fecal material, liver and serum","increased I3A levels in fecal material, the liver and serum"
